How the values were obtained:
rhesus H3 receptor [1] = molecular target: T1, rhesus H3 receptor (Macaca mulatta, UniProt Q865E1); assay: Rhesus H3 [3H]-methylhistamine radioligand binding assay; design: species or system rhesus monkey (Macacca Mulatta); details: [3H]-Methylhistamine 2 nM, rhesus H3 membranes, WGA SPA beads, Cheng-Prusoff
Summary of the method: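 Membranes from tetracycline-induced (500 ng/ml, 24 h) Flp-In T-REx 293 cells expressing 445-aa rhesus H3 receptor, 20-30 μg protein per reaction. WGA SPA format with 2 nM [3H]-methylhistamine, 1 hour at 25° C; Ki obtained via Hill transformation and Cheng-Prusoff equation.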

rhesus H3 receptor [2] = molecular target: T1, rhesus H3 receptor; assay: GTPγS radioligand binding assay, inhibition of rhesus H3 constitutive functional activity (inverse agonism); type: biochemical, rhesus monkey (Macacca Mulatta); design: concentration or dose not given beside the values; details: rhesus H3 cell membranes, relative to basal levels
Summary of the method: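 Membranes from tetracycline-induced (500 ng/ml, 24 h) Flp-In T-REx 293 cells stably expressing the 445-aa rhesus H3 receptor, resuspended in 5 mM HEPES pH 7.4 at 10 mg/ml protein. Inverse agonism measured as inhibition of constitutive GTPγS binding.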

T1 sequence (Q865E1 1-445): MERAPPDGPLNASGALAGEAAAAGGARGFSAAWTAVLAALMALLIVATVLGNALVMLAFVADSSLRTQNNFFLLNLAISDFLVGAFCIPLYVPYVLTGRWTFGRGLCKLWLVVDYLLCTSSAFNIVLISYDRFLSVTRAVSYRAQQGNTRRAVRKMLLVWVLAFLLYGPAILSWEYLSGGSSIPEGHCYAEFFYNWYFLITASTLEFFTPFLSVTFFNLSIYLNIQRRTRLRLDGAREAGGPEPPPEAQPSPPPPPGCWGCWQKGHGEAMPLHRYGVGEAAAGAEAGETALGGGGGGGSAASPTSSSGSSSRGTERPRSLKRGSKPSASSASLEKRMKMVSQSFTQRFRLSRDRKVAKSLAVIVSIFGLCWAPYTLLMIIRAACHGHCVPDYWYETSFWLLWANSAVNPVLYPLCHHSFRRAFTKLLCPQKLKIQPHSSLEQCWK

Compound | Ki (rhesus H3 receptor [1]) | Inverse Agonism: % inhibition of Basal GTPγS binding in Rhesus H3 (rhesus H3 receptor [2])
C[C@H]1CCCN1C1CCN(c2ccc(N3CCC4(CCN(CC5CCCC5)CC4)C3=O)c(F)c2)CC1 [Example 57, 8-Cyclopentyl methyl-2-{2-fluoro-4-[4-(2S-2-methyl-pyrrolidin-1-yl)-piperidin-1-yl]-phenyl}-2,8-diaza-spiro[4.5]decan-1-one] | 0.1 nM | −21%
C[C@H]1CCCCN1[C@H]1CCN(c2ccc(N3CCC4(CCN(CC5CCCCC5)CC4)C3=O)c(C(F)(F)F)c2)C1 [Example 58, 8-Cyclohexyl methyl-2-{4-[3-((2S,3′S)-2-methyl-piperidin-1-yl)-pyrrolidin-1-yl]-2-trifluoromethyl-phenyl}-2,8-diaza-spiro[4.5]decan-1-one] | 0.15 nM | −19%
C[C@H]1CCCCN1[C@H]1CCN(c2ccc(N3CCC4(CCN(CC5CCOCC5)CC4)C3=O)c(F)c2)C1 [Example 59, 2-{2-Fluoro-4-[3-((2S,3′S)-2-methyl-piperidin-1-yl)-pyrrolidin-1-yl]-phenyl}-8-(tetrahydro-pyran-4-ylmethyl)-2,8-diaza-spiro[4.5]decan-1-one] | 4.6 nM | −19%
C[C@H]1CCCN1[C@H]1CCN(c2ccc(N3CCC4(CCN(C(=O)Cc5ccccc5)CC4)C3=O)c(C(F)(F)F)c2)C1 [Example 60, 2-[4-((2S,3′S)-2-Methyl-[1,3′]bipyrrolidinyl-1′-yl)-2-trifluoromethyl-phenyl]-8-phenylacetyl-2,8-diaza-spiro[4.5]decan-1-one] | 144 nM | −19%
COCC(=O)N1CCC2(CC1)CCN(c1ccc(N3CC[C@H](N4CCC[C@@H]4C)C3)cc1C(F)(F)F)C2=O [Example 61, 8-(2-Methoxy-acetyl)-2-[4-((2S,3′S)-2-methyl-[1,3′]bipyrrolidinyl-1′-yl)-2-trifluoromethyl-phenyl]-2,8-diaza-spiro[4.5]decan-1-one] | 193 nM | −7%
C[C@H]1CCCN1[C@H]1CCN(c2ccc(N3CCC4(CCN(C(=O)c5ccc6ccccc6c5)CC4)C3=O)c(C(F)(F)F)c2)C1 [Example 62, 2-[4-((2S,3′S)-2-Methyl-[1,3′]bipyrrolidinyl-1′-yl)-2-trifluoromethyl-phenyl]-8-(naphthalene-2-carbonyl)-2,8-diaza-spiro[4.5]decan-1-one] | 8.1 nM | −19%
C[C@H]1CCCN1[C@H]1CCN(c2ccc(N3CCC4(CCN(C(=O)c5ccccc5)CC4)C3=O)c(C(F)(F)F)c2)C1 [Example 63, 8-Benzoyl-2-[4-((2S,3′S)-2-methyl-[1,3′]bipyrrolidinyl-1′-yl)-2-trifluoromethyl-phenyl]-2,8-diaza-spiro[4.5]decan-1-one] | 64 nM | −18%
C[C@H]1CCCN1[C@H]1CCN(c2ccc(N3CCC4(CCN(C(=O)c5ccoc5)CC4)C3=O)c(C(F)(F)F)c2)C1 [Example 64, 8-(Furan-3-carbonyl)-2-[4-((2S,3′S)-2-methyl-[1,3′]bipyrrolidinyl-1′-yl)-2-trifluoromethyl-phenyl]-2,8-diaza-spiro[4.5]decan-1-one] | 9.6 nM | −19%
COc1ccc(S(=O)(=O)N2CCC3(CCN(c4ccc(N5CC[C@H](N6CCC[C@@H]6C)C5)cc4C(F)(F)F)C3=O)CC2)cc1 [Example 65, 8-(4-Methoxy-benzenesulfonyl)-2-[4-((2S,3′S)-2-methyl-[1,3′]bipyrrolidinyl-1′-yl)-2-trifluoromethyl-phenyl]-2,8-diaza-spiro[4.5]decan-1-one] | 10.6 nM | −18%
C[C@H]1CCCN1[C@H]1CCN(c2ccc(N3CCC4(CCN(Cc5ccco5)CC4)C3=O)c(C(F)(F)F)c2)C1 [Example 66, 8-Furan-2-ylmethyl-2-[4-((2S,3′S)-2-methyl-[1,3′]bipyrrolidinyl-1′-yl)-2-trifluoromethyl-phenyl]-2,8-diaza-spiro[4.5]decan-1-one] | 5.5 nM | −19%
